# Data: article PMC5110965, “Evolutionarily conserved odorant receptor function questions ecological context of octenol role in mosquitoes” (Scientific Reports, 2016)
# Assays:
# TaOR8 [1] = tested on: T1, TaOR8; test: two-electrode voltage clamp in Xenopus oocytes, concentration-response; type: cell-based, Toxorhynchites amboinensis
# T1 construct: gene Or8; with TaORco
# TaOR8 [2] = tested on: T1, TaOR8; test: two-electrode voltage clamp; […] DEET against […] (R)-octenol response; type: cell-based, Toxorhynchites amboinensis; details: 1000 µM
smiles,measurement,setting,value
"C=CC(O)CCCCC (racemic) [(RS), (RS)-1-octen-3-ol]",EC50,TaOR8 [1],3.29 µM
"C=C[C@H](O)CCCCC [(R), (R)-(−)-1-octen-3-ol]",EC50,TaOR8 [1],0.401 µM
"C=C[C@@H](O)CCCCC [(S), (S)-(+)-1-octen-3-ol]",EC50,TaOR8 [1],50.6 µM
"CCN(CC)C(=O)c1cccc(C)c1 [DEET, N,N-Diethyl-meta-toluamide]",% inhibition at 10^-3 M,TaOR8 [2],90
